Experiment [1] deals with AMPK phosphorylation. Nature of the experiment: Mouse model of AMPK activation deficiency induced by compound C: biochemical parameters. The format is in vivo, mice of the Swiss strain. The note with it: for ATP (deficit) / citrate synthase (mitochondrial mass) / lipid peroxidation / activation of IL-1β interleukin of the inflammasome / activation of IL-18 interleukin of the inflammasome: mice, compound C 20 mg/kg/day i.p., alone or with metformin; for ATP (deficit): FIG. 5; for citrate synthase (mitochondrial mass): FIG. 6; for lipid peroxidation / activation of IL-1β interleukin of the inflammasome / activation of IL-18 interleukin of the inflammasome: serum; for lipid peroxidation: FIG. 7; for activation of IL-1β interleukin of the inflammasome / activation of IL-18 interleukin of the inflammasome: FIG. 8. The procedure:
The mice were injected by intraperitoneal route once a day, the final daily dose being 20 mg/kg/day. Another group of mice received the treatment with Compound C in addition to Metformin. The treatment is performed until the day the animals are sacrificed. […]
Blood: The blood will be the starting-point to obtain serum or isolate leukocytes. The following will be measured in the serum: glucose, triglycerides, cholesterol, lactate, proteins, redox potential, protein oxidation, etc. The following will be measured in the leukocytes: ATP, inflammatory interleukins, oxidative stress, mitochondrial mass.

For experiment [2], the system named is mice. Nature of the experiment: Hot-plate test (nociception) in mice. In kind it is in vivo. As to conditions: after first five days of compound c; at Temp.<50° C. and Temp.>50° C.; FIG. 9. The text has this: Another symptom associated with pain in fibromyalgia is depression.
In order to monitor the effect of metformin in an in vivo model of AMPK deficit, we will use mice that will be administered compound c, a specific inhibitor of AMPK phosphorylation, in time, and their behaviour will be characterised one week before starting the administrations of compound c and 7 days after the first administration. This experimental design will provide us with a view as to how metformin inhibits the effects induced by the deficit of AMPK and its influence on the behaviour of the mice, monitoring, with particular interest, those tests that show an alteration of nociception (hot plate, visceral pain [J Neurochem (2007) 103: 2629-39] and muscle pain [J Neurosci (2007) 27: 10000-6]). Prior to beginning the administration of compound c and metformin, and following the pain behaviour tests, other behavioural tests will be conducted which show other symptoms presented by patients with fibromyalgia: […]
Background: In hot-plate and tail-flick tests a longer latency is read as antinociception.

In experiment [3] the test system is mice. As to conditions: after first five days of compound c; FIG. 10. An excerpt: Following the first five days of administration of compound c, behavioural determinations were made in order to evaluate the symptoms. […] Another symptom associated with pain in fibromyalgia is depression.
Depression test: Tail suspension, forced swimming.

In experiment [4] the test system is mice. As to the kind of experiment: Symptoms of fibromyalgia (pain, depression) in mice with AMPK inhibited by compound c. The format is in vivo. As to conditions: then metformin. An excerpt:
In order to monitor the effect of metformin in an in vivo model of AMPK deficit, we will use mice that will be administered compound c, a specific inhibitor of AMPK phosphorylation, in time, and their behaviour will be characterised one week before starting the administrations of compound c and 7 days after the first administration. […] Prior to beginning the administration of compound c and metformin, and following the pain behaviour tests, other behavioural tests will be conducted which show other symptoms presented by patients with fibromyalgia: […]

The test system of experiment [5] is blood mononuclear cells (BMCs) of patients with fibromyalgia. As to conditions: BMCs of 20 fibromyalgia patients after metformin. The text has this:
(§1) In order to study the role of AMPK phosphorylation in patients with fibromyalgia, AMPK activation was induced with metformin, a potent AMPK stimulator, in the BMCs of 20 patients.
(§2) In order to evaluate the effect of metformin in in vitro models of fibromyalgia, we will use mononuclear cells isolated from patients with fibromyalgia and kept under culture conditions, with RPMI medium with 10% serum and 5% CO2. Parallel to this, skin fibroblasts isolated from patients with fibromyalgia kept under culture with DMEM medium with 20% serum and 5% CO2 will be used. These cultures will enable us to evaluate the toxicity of different doses of metformin and compounds that induce AMPK phosphorylation, through the quantification of apotosis and cell growth, by counting the nuclei of live cells. Once the ideal working dose has been found, below 5 mM, we will be able to quantify the protection against stressful stimuli through the effect of hydrogen peroxide, a very potent free radical. Using flow cytometry, we will evaluate the production of ROS before and after the treatment below 5 mM. Other parameters to be quantified at these doses will be ATP, by means of luminometry, citrate synthase as a marker of mitochondrial mass, by means of enzyme kinetics spectrophotometry, and inflammatory interleukins by means of ELISA.

For experiment [6], the system named is inflammasome (IL-1β, IL-18) in BMCs of patients with fibromyalgia. Nature of the experiment: IL-1β and IL-18 inflammasome interleukins in cells of fibromyalgia patients. The format is cell-based, human.
Text: as §1, §2

In experiment [7] the test system is fibroblasts of patients with fibromyalgia. As to the kind of experiment: Protection of patient fibroblasts exposed to hydrogen peroxide (cell death). The format is cell-based, human. As to conditions: low doses of hydrogen peroxide with metformin added, FIG. 4.
Method: Parallel to this, skin fibroblasts isolated from patients with fibromyalgia kept under culture with DMEM medium with 20% serum and 5% CO2 will be used. […] Once the ideal working dose has been found, below 5 mM, we will be able to quantify the protection against stressful stimuli through the effect of hydrogen peroxide, a very potent free radical. Using flow cytometry, we will evaluate the production of ROS before and after the treatment below 5 mM. Other parameters to be quantified at these doses will be ATP, by means of luminometry, citrate synthase as a marker of mitochondrial mass, by means of enzyme kinetics spectrophotometry, and inflammatory interleukins by means of ELISA.
The conditions of experiment [8]: neuropathic pain (Russe et al., 2013), adiposis dolorosa (Labuzek et al., 2013); cited from earlier work.
Setting [9] is: BMCs of fibromyalgia patients after metformin, FIG. 3.

The structures appear in SMILES notation.

In the case of `c1cc(-c2cnn3cc(-c4ccc(OCCN5CCCCC5)cc4)cnc23)ccn1` [compound c], in experiment [1], the “ATP (deficit)” value is listed as “induced alterations”, the “citrate synthase (mitochondrial mass)” value is on record as “induced alterations”, the lipid peroxidation entry is “induced alterations” and the “activation of IL-1β interleukin of the inflammasome” value is reported as “induced alterations”. Further, in experiment [1], the “activation of IL-18 interleukin of the inflammasome” value is “induced alterations”. For the same compound, the “response latency to the thermal stimulus (hot-plate test)” value in experiment [2] was “decrease in the response latency”. For the same compound, in experiment [3], the “paralysis (immobilisation) in tail suspension test, reflecting depression” value is “greater paralysis”. Further, the “symptoms typical of fibromyalgia, such as pain or depression” value in experiment [4] is recorded as “presented symptoms typical of fibromyalgia”.

`CN(C)C(=N)N=C(N)N` [metformin]: the ATP levels result in experiment [5] (FIG. 1) is “significant recovery”. For the same compound, in experiment [5] (FIG. 2), the “mitochondrial ROS” value is on record as “decrease”. In experiment [6] (setting [9]), the “IL-1β interleukin of the inflammasome” value is “decrease” and the “IL-18 interleukin of the inflammasome” value is given as “decrease”. For the same compound, the “inhibition of the inflammasome” value in experiment [6] (cells of patients with fibromyalgia) is on record as “demonstrated inhibition of the inflammasome”. Besides, the cell death result in experiment [7] is on record as “significantly reduced”. The “inhibition of the inflammasome” value in experiment [1] (mice with inhibited AMPK) is listed as “demonstrated inhibition of the inflammasome”. Also, in experiment [1], the “ATP (deficit)” value is “restored”, the “citrate synthase (mitochondrial mass)” value was “restored”, the lipid peroxidation result is “restored” and the “activation of IL-1β interleukin of the inflammasome” value is reported as “restored”. Moreover, the “activation of IL-18 interleukin of the inflammasome” value in experiment [1] was “restored”. For the same compound, the “symptoms typical of fibromyalgia, such as pain or depression” value in experiment [4] is on record as “recovery in the symptoms”. Further, the analgesic effect entry in experiment [8] was “strong analgesic effect”.

The values are drawn from patent US20150272911A1, “Use of AMPK Inducers and Metformin for the Treatment of Fibromyalgia” (priority 2014, published 2015).
